We go through 20 compounds from patent US20090215778A1, “Alpha-substituted Arylmethyl Piperazine Pyrazolo [1,5-alpha]Pyrimidine Amide Derivatives” (priority 2007, published 2009).

Like-named read-outs stand apart in the source and are kept apart here.

In experiment [1] the target is T1, HIV Env six-helix bundle (6HB) structure (Human immunodeficiency virus type 1 group M subtype B, UniProt P04579).
T1 construct: H9 cells chronically infected with HIV-1 (H9/HIV-1RF); endogenous in cells; host or cells: H9 cells chronically infected with HIV-1 strain RF (Env is made from the virus in the infected cells, not by transfection)
In words: Six-helix bundle (6HB) assay. Type of experiment: cell-based, HIV-1 (strain RF). The method, then: 3×10^6H9 cells were incubated with 1 mL of HIV-1 (strain RF) supplemented with 40 μg/mL of DEAE-dextran. Virus and cells were incubated together at 37° C. for 2-4 hours with sporadic shaking to resuspend cells. 10 mL of media (RPMI 1640 containing 10% fetal bovine serum and supplemented with 50 μg/mL gentamicin) was then added and the virus-cell coculture was incubated at 37° C. in a humidified 5% CO2 incubator. 3 days post-infection and every 2-3 days thereafter, the infected H9/HIV-1RF cells were centrifuged, the supernatant was removed, and the cells were resuspended at a density of 0.3×10^6 cells/mL in media (RPMI 1640 containing 10% fetal bovine serum and supplemented with 50 μg/mL gentamicin). Chronically infected H9/HIV-1RF cells were used in experiments starting 12-15 days after infection and up to 40 days post-infection.
This assay determines the effect of compounds on conformational changes in HIV envelope glycoprotein (Env) that are required in order for Env to mediate the fusion of the viral and cellular membranes during virus entry and infection. Specifically, this assay measures the effect of compounds on the formation of the HIV Env six-helix bundle (6HB) structure.
H9 cells chronically infected with HIV-1 (H9/HIV-1RF) were resuspended in Stain/Wash Buffer (1% bovine serum albumin, 0.1% sodium azide in phosphate-buffered saline) and aliquoted at 2.5×10^5 cells per well into 96-well V-bottom plates containing various concentrations of test compounds. Cells and compounds were incubated for 30 minutes at 37° C. Recombinant soluble CD4 (sCD4) was then added to a final concentration of 1 μg/mL. Negative control wells contained no sCD4 and no test compound. Positive control wells contained sCD4 but no test compound. The plate was incubated for 1 hour at 37° C. to allow the sCD4 to bind to HIV Env and induce conformational changes in the Env protein. Antibody that is specific for the HIV Env six-helix bundle conformation was then added (1 μL polyclonal rabbit serum per well), and the plate was incubated for an additional 1 hour at 37° C. to permit antibody binding. The cells were then washed once with Stain/Wash Buffer to remove compound and excess antibody. The cells were resuspended in Stain/Wash Buffer containing PE-labeled anti-rabbit secondary antibody (KPL) at 0.25 μg per well. The cells were incubated for 45 min at 4° C. to permit secondary antibody binding. Fluorescence was detected using a BD FACSArray™ bioanalyzer. Compounds that inhibited Env conformational changes were identified as those that decreased primary antibody binding to the six-helix bundle epitope resulting in a decrease in fluorescence signal.

The subject of another experiment is HIV-1, NL4-3 strain. Description: Virus infection assay (virus entry and single-cycle infection). In kind it is cell-based. The conditions noted are these: Human immunodeficiency virus 1, NL43, TZM-b1, read-out: Nl4. As for the experimental part:
TZM-b1 indicator cells were propagated in Dulbecco's Modified Eagle's Medium (DMEM) containing 10% fetal bovine serum (FBS, heat-inactivated) and supplemented with gentamicin (50 ug/mL).
This assay determines the effects of compounds on virus entry and single-cycle infection of cells. In this assay, virus (HIV-1, NL4-3 strain) is added to indicator cells expressing the CD4 receptor and both the CXCR4 and CCR5 co-receptor. The cells contain both a lac Z and a luciferase reporter gene under control of the viral LTR transcription promoter. The cells and virus are incubated together in the presence of various concentrations of test compounds. Successful infection of the cells by the virus permits activation of the reporter gene by the viral Tat transcription factor. The resulting beta-galactosidase or luciferase activity is quantitated using a chemiluminescent substrate and a luminescent plate reader.
Specifically, one day prior to infection, 1.5×10^4 TZM-b1 indicator cells were added to each well of a 96-well microtiter plate. On the day of the experiment, virus (MOI 0.01) in 50 μL of medium (Dulbecco's Modified Eagle's Medium) supplemented with DEAE-dextran at a final concentration of 80 μg/mL was added to cells along with various concentrations of test compound in 50 μL of Dulbecco's Modified Eagle's Medium. Control wells had virus alone. Following a 4 hr incubation at 37° C., complete media [DMEM supplemented with 10% fetal bovine serum (FBS, heat-inactivated) and gentamicin (50 ug/mL)] was added. One day post-infection the level of virus infection was quantitated by detection of β-galactosidase expression using the Gal-Screen system (Applied Biosystems).

T1 sequence (P04579 32-519): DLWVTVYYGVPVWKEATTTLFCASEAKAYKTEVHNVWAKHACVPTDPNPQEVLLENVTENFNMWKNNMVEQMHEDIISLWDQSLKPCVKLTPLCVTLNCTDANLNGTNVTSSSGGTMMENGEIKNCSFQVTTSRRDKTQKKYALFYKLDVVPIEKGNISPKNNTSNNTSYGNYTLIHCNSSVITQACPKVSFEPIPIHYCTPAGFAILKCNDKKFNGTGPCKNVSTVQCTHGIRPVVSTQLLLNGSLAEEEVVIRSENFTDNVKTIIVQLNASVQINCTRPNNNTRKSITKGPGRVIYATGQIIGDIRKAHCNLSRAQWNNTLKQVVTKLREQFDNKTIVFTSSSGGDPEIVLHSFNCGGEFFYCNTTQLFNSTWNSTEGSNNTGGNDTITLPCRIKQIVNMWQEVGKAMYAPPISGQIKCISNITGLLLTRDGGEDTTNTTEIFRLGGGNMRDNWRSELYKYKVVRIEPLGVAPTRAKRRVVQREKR
T1 sequence (P04579 520-865): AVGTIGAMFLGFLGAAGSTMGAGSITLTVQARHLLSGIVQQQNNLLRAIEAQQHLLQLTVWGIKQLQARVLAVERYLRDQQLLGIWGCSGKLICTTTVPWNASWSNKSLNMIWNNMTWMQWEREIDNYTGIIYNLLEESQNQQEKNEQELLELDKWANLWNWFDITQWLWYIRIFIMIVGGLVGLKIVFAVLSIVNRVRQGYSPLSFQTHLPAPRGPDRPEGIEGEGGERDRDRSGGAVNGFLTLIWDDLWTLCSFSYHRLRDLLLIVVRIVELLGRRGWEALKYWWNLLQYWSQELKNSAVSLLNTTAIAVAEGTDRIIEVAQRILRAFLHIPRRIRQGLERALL

Turning to `COc1ccc(-c2nc3c(C(=O)N4CCN([C@@H](C)c5cccc(C#N)c5)C[C@H]4C)cnn3c(C(F)(F)F)c2C)cc1`, the IC50 in experiment [1] is < 1000 nM; in the experiment on HIV-1, NL4-3 strain it was < 1000 nM.
As to `COc1ccc(-c2nc3c(C(=O)N4CCN(C(CO)c5ccc(C(C)=O)s5)C[C@H]4C)cnn3c(C(F)(F)F)c2C)cc1` (stereo partly shown), the IC50 in experiment [1] was 1100 to 10000 nM; in the experiment on HIV-1, NL4-3 strain it was < 1000 nM.
For `COc1ccc(-c2nc3c(C(=O)N4CCN(C(CO)c5ccc(Cl)nc5)C[C@H]4C)cnn3c(C(F)(F)F)c2C)cc1` (stereo partly shown), in that order: < 1000 nM and < 1000 nM.
For the compound `COc1ccc(-c2nc3c(C(=O)N4CCN(C(CO)c5ccc(C#N)cc5)C[C@H]4C)cnn3c(C(F)(F)F)c2C)cc1` (stereo partly shown), the IC50 in experiment [1] is 1100 to 10000 nM; in the experiment on HIV-1, NL4-3 strain, 1100 to 10000 nM.
Regarding `COc1ccc(-c2nc3c(C(=O)N4CCN(C(C(N)=O)c5ccccc5)C[C@H]4C)cnn3c(C(F)(F)F)c2C)cc1` (stereo partly drawn) [1-piperazineacetamide, 4-[[5-(4-methoxyphenyl)-6-methyl-7-(trifluoromethyl)pyrazolo[1,5-α]pyrimidin-3-yl]carbonyl]-3-methyl-α-phenyl-, (3R)-], the IC50 in experiment [1] was < 1000 nM; with HIV-1, NL4-3 strain, < 1000 nM.
As to `CNC(=O)C(c1ccccc1)N1CCN(C(=O)c2cnn3c(C(F)(F)F)c(C)c(-c4ccc(OC)cc4)nc23)[C@H](C)C1` (stereo partly drawn) [1-piperazineacetamide, 4-[[5-(4-methoxyphenyl)-6-methyl-7-(trifluoromethyl)pyrazolo[1,5-α]pyrimidin-3-yl]carbonyl]-N,3-dimethyl-α-phenyl-, (3R)-], the IC50 in experiment [1] is < 1000 nM; in the experiment on HIV-1, NL4-3 strain, < 1000 nM.
In the case of `COc1ccc(-c2nc3c(C(=O)N4CCN(C(C(=O)N(C)C)c5ccccc5)C[C@H]4C)cnn3c(C(F)(F)F)c2C)cc1` (stereo partly drawn) [1-piperazineacetamide, 4-[[5-(4-methoxyphenyl)-6-methyl-7-(trifluoromethyl)pyrazolo[1,5-α]pyrimidin-3-yl]carbonyl]-N,N,3-trimethyl-α-phenyl-, (3R)-], the IC50 in experiment [1] is < 1000 nM; in the experiment on HIV-1, NL4-3 strain, < 1000 nM.
As for `COc1ccc(-c2nc3c(C(=O)N4CCN(C(C(=O)O)c5ccccc5)C[C@H]4C)cnn3c(C(F)(F)F)c2C)cc1` (stereo partly drawn) [1-piperazineacetic acid, 4-[[5-(4-methoxyphenyl)-6-methyl-7-(trifluoromethyl)pyrazolo[1,5-α]pyrimidin-3-yl]carbonyl]-3-methyl-α-phenyl-, (3R)-], the IC50 in experiment [1] was > 10100 nM; in the experiment on HIV-1, NL4-3 strain, > 10100 nM.
Take `COC(=O)C(c1ccccc1)N1CCN(C(=O)c2cnn3c(C(F)(F)F)c(C)c(-c4ccc(OC)cc4)nc23)[C@H](C)C1` (stereo partly drawn) [1-piperazineacetic acid, 4-[[5-(4-methoxyphenyl)-6-methyl-7-(trifluoromethyl)pyrazolo[1,5-α]pyrimidin-3-yl]carbonyl]-3-methyl-α-phenyl-, methyl ester, (3R)-]: the IC50 in experiment [1] is < 1000 nM; in the experiment on HIV-1, NL4-3 strain, < 1000 nM.
Regarding `COc1ccc(-c2nc3c(C(=O)N4CCN(C(C#N)c5ccccc5)C[C@H]4C)cnn3c(C(F)(F)F)c2C)cc1` (stereo partly drawn) [1-piperazineacetonitrile, 4-[[5-(4-methoxyphenyl)-6-methyl-7-(trifluoromethyl)pyrazolo[1,5-α]pyrimidin-3-yl]carbonyl]-3-methyl-α-phenyl-, (3R)-], the IC50 is < 1000 nM in experiment [1] and < 1000 nM in the experiment with HIV-1, NL4-3 strain.
As for `COc1ccc(-c2nc3c(C(=O)N4CCN([C@@H](C)c5ccc(C#N)s5)C[C@H]4C)cnn3c(C(F)(F)F)c2C)cc1` [2-thiophenecarbonitrile, 5-[(1S)-1-[(3R)-4-[[5-(4-methoxyphenyl)-6-methyl-7-(trifluoromethyl)pyrazolo[1,5-α]pyrimidin-3-yl]carbonyl]-3-methyl-1-piperazinyl]ethyl]-], the IC50 in experiment [1] is < 1000 nM; in the experiment on HIV-1, NL4-3 strain, 1100 to 10000 nM.
For `COc1ccc(-c2nc3c(C(=O)N4CCN(C(CO)c5ccc(C(=O)N(C)C)s5)C[C@H]4C)cnn3c(C(F)(F)F)c2C)cc1` (stereo partly drawn) [2-thiophenecarboxamide, 5-[2-hydroxy-1-[(3R)-4-[[5-(4-methoxyphenyl)-6-methyl-7-(trifluoromethyl)pyrazolo[1,5-α]pyrimidin-3-yl]carbonyl]-3-methyl-1-piperazinyl]ethyl]-N,N-dimethyl-], in that order: > 10100 nM and > 10100 nM.
For `COc1ccc(-c2nc3c(C(=O)N4CCN(C(CO)c5ccc(C(=O)O)s5)C[C@H]4C)cnn3c(C(F)(F)F)c2C)cc1` (stereo partly drawn) [2-thiophenecarboxylic acid, 5-[2-hydroxy-1-[(3R)-4-[[5-(4-methoxyphenyl)-6-methyl-7-(trifluoromethyl)pyrazolo[1,5-α]pyrimidin-3-yl]carbonyl]-3-methyl-1-piperazinyl]ethyl]-], in that order: 1100 to 10000 nM and > 10100 nM.
On the same counts, the results for `COc1ccc(-c2nc3c(C(=O)N4CCN(C(CO)c5ccccc5NC(C)=O)C[C@H]4C)cnn3c(C(F)(F)F)c2C)cc1` (stereo partly drawn) [acetamide, N-[2-[2-hydroxy-1-[(3R)-4-[[5-(4-methoxyphenyl)-6-methyl-7-(trifluoromethyl)pyrazolo[1,5-α]pyrimidin-3-yl]carbonyl]-3-methyl-1-piperazinyl]ethyl]phenyl]-] are > 10100 nM and > 10100 nM.
`COc1ccc(-c2nc3c(C(=O)N4CCN([C@@H](CO)c5ccccc5)C[C@H]4C)cnn3c(C(F)(F)F)c2C)cc1` [drawing 44, methanone, [(2R)-4-[(1R)-2-hydroxy-1-phenylethyl]-2-methyl-1-piperazinyl][5-(4-methoxyphenyl)-6-methyl-7-(trifluoromethyl)pyrazolo[1,5-α]pyrimidin-3-yl]-]: the IC50 in experiment [1] (read-out: 6HB IC50, H9 cells chronically infected with HIV-1 RF, sCD4-induced six-helix bundle formation) is < 1000 nM.
In experiment [1], `CCC(c1ccccc1)N1CCN(C(=O)c2cnn3c(C(F)(F)F)cc(-c4ccc(OC)cc4)nc23)CC1` (stereo not shown) [methanone, [5-(4-methoxyphenyl)-7-(trifluoromethyl)pyrazolo[1,5-a]pyrimidin-3-yl][4-(1-phenylpropyl)-1-piperazinyl]-] registered an IC50 of 1100 to 10000 nM.
Compound `COc1ccc(-c2cc(C(F)(F)F)n3ncc(C(=O)N4CCN(C(C)c5ccccc5)CC4)c3n2)cc1` (stereo not drawn) [methanone, [5-(4-methoxyphenyl)-7-(trifluoromethyl)pyrazolo[1,5-α]pyrimidin-3-yl][4-(1-phenylethyl)-1-piperazinyl]-] showed an IC50 in experiment [1] of 1100 to 10000 nM.
Same read-out and setting: the figure for `COc1ccc(-c2cc(C(F)(F)F)n3ncc(C(=O)N4CCN([C@@H](C)c5ccccc5)CC4)c3n2)cc1` [methanone, [5-(4-methoxyphenyl)-7-(trifluoromethyl)pyrazolo[1,5-α]pyrimidin-3-yl][4-(1-phenylethyl)-1-piperazinyl]-] is 1100 to 10000 nM; for `COc1ccc(-c2cc(C(F)(F)F)n3ncc(C(=O)N4CCN([C@H](C)c5ccccc5)CC4)c3n2)cc1` [methanone, [5-(4-methoxyphenyl)-7-(trifluoromethyl)pyrazolo[1,5-α]pyrimidin-3-yl][4-(1-phenylethyl)-1-piperazinyl]-] it is 1100 to 10000 nM.
As to `COc1ccc(-c2cc(C(F)(F)F)n3ncc(C(=O)N4CCN(C(c5ccccc5)C(F)(F)F)CC4)c3n2)cc1` (stereo not drawn) [methanone, [5-(4-methoxyphenyl)-7-(trifluoromethyl)pyrazolo[1,5-α]pyrimidin-3-yl][4-(2,2,2-trifluoro-1-phenylethyl)-1-piperazinyl]-], in experiment [1], the IC50 is < 1000 nM.
